Test system: PPO inhibitor herbicide resistant Amaranthus tuberculatus homozygous for deletion of glycine at codon 210 in PPX2L
Assay: Postemergence glasshouse test, dead or alive assessment, codon 210 deletion population
Assay type: in vivo
Conditions: 14 days after application; for use rate at or beyond which no plants survived application: postemergence

## CCOC(=O)C1(C)CC(c2cc(-n3c(=O)cc(C(F)(F)F)n(C)c3=O)c(F)cc2Cl)=NO1 (stereo not drawn) [Compound 8, 3-(2-chloro-4-fluoro-5-(3-methyl-2,6-dioxo-4-trifluoromethyl-3,6-dihydropyrimidin-1(2H)-yl)phenyl)-5-methyl-4,5-dihydroisoxazole-5-carboxylic acid ethyl ester]
2 g ai/ha^−1 postemergence
  Average % Survival of 16 repetitions: 100%
4 g ai/ha^−1 postemergence
  Average % Survival of 16 repetitions: 100%
8 g ai/ha^−1 postemergence
  Average % Survival of 16 repetitions: 75%
16 g ai/ha^−1 postemergence
  Average % Survival of 16 repetitions: 12.5%
32 g ai/ha^−1 postemergence
  Average % Survival of 16 repetitions: 12.5%
64 g ai/ha^−1 postemergence
  Average % Survival of 16 repetitions: 0%
128 g ai/ha^−1 postemergence
  Average % Survival of 16 repetitions: 0%
256 g ai/ha^−1 postemergence
  Average % Survival of 16 repetitions: 0%
  use rate at or beyond which no plants survived application: ≥ 64 g ai/ha^−1

## CS(=O)(=O)NC(=O)c1cc(Oc2ccc(C(F)(F)F)cc2Cl)ccc1[N+](=O)[O-] [Fomesafen]
0.82 g ai/ha^−1 postemergence
  Average % Survival of 16 repetitions: 100%
1.64 g ai/ha^−1 postemergence
  Average % Survival of 16 repetitions: 100%
3.28 g ai/ha^−1 postemergence
  Average % Survival of 16 repetitions: 100%
6.56 g ai/ha^−1 postemergence
  Average % Survival of 16 repetitions: 100%
13.13 g ai/ha^−1 postemergence
  Average % Survival of 16 repetitions: 100%
26.25 g ai/ha^−1 postemergence
  Average % Survival of 16 repetitions: 100%
52.5 g ai/ha^−1 postemergence
  Average % Survival of 16 repetitions: 81.3%
105 g ai/ha^−1 postemergence
  Average % Survival of 16 repetitions: 62.5%
210 g ai/ha^−1 postemergence
  Average % Survival of 16 repetitions: 0%
420 g ai/ha^−1 postemergence
  Average % Survival of 16 repetitions: 0%
840 g ai/ha^−1 postemergence
  Average % Survival of 16 repetitions: 0%
  use rate at or beyond which no plants survived application: ≥ 210 g ai/ha^−1

Source: patent US20250344698A1, “A METHOD OF CONTROLLING WEEDS” (SYNGENTA CROP PROTECTION AG, priority 2022, published 2025)
